pIC50: −log10 of the molar value.
The molecules below were run against T1, ZAP-70 (Homo sapiens, UniProt P43403) (assay: ZAP-70 kinobeads assay). Details: cell lysate, affinity matrix with immobilized aminopyrido-pyrimidine ligand 24, dot blot detection.
T1 construct: endogenous in cells; host or cells: cell lysate
T1 sequence (P43403 1-619): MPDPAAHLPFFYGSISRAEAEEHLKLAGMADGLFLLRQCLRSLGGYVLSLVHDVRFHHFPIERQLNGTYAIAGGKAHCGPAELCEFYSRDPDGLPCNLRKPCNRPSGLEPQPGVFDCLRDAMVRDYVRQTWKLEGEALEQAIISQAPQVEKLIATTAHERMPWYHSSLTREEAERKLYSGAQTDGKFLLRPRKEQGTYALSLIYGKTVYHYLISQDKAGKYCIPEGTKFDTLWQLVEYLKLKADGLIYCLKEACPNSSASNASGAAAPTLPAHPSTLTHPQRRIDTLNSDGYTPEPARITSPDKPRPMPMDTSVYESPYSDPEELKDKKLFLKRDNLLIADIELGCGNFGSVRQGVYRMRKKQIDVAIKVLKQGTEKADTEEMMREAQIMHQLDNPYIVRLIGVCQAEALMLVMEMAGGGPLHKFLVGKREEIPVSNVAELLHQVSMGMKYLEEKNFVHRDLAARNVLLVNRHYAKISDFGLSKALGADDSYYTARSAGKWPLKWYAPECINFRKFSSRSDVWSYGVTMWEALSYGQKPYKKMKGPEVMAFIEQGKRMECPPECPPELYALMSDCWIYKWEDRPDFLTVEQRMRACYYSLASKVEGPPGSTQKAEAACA
Format: binding
Protocol: The compounds of the present invention as described in the previous examples can be tested in the ZAP-70 kinobeads assay as described (EP-A 1862802 and WO-A 2007/137867). Briefly, test compounds (at various concentrations) and the affinity matrix with the immobilized aminopyrido-pyrimidine ligand 24 are added to cell lysate aliquots and allowed to bind to the proteins in the lysate sample. After the incubation time the beads with captured proteins are separated from the lysate. Bound proteins are then eluted and the presence ZAP-70 is detected and quantified using a specific antibody in a dot blot procedure and the Odyssey infrared detection system.

pIC50 | Structure (SMILES)
≥ 7.00 | COc1ccc(Nc2nc(Nc3cc(OC)c(OC)c(OC)c3)ncc2Cl)c(N(CCNC(C)=O)S(C)(=O)=O)c1 [Example 30]
5.00 to 6.00 | COC(=O)CN(c1c(C)cccc1Nc1nc(Nc2cc(OC)c(OC)c(OC)c2)ncc1F)S(C)(=O)=O [Example 18, Methyl 2-(N-(2-(5-fluoro-2-(3,4,5-trimethoxyphenylamino)pyrimidin-4-ylamino)-6-methylphenyl)methylsulfonamido)acetate]
6.00 to 7.00 | COc1cc(Nc2ncc(F)c(Nc3cccc(C)c3N(CCN)S(C)(=O)=O)n2)cc(OC)c1OC [Example 19, N-(2-aminoethyl)-N-(2-(5-fluoro-2-(3,4,5-trimethoxyphenylamino)pyrimidin-4-ylamino)-6-methylphenyl)methanesulfonamide]
6.00 to 7.00 | COc1ccc(Nc2ncc(Cl)c(Nc3ccc(OC)cc3N(CCNC=O)S(C)(=O)=O)n2)c(OC)c1 [Example 11]
